Assays:
Type in all cases: functional
UACC-62 = assay: Cytotoxicity against human UACC62 cells
HCT-116 = assay: Cytotoxicity against human HCT116 cells
SF-539 = assay: Cytotoxicity against human SF539 cells
OVCAR-3 = assay: Cytotoxicity against human OVCAR-3 cells
DU-145 = assay: Cytotoxicity against human DU145 cells
HOP-62 = assay: Cytotoxicity against human HOP62 cells
SN12C = assay: Cytotoxicity against human SN12C cells
MDA-MB-435 = assay: Cytotoxicity against human MDA-MB-435 cells

SMILES | GI50 (UACC-62) [µM] | GI50 (HCT-116) [µM] | GI50 (SF-539) [µM] | GI50 (OVCAR-3) [µM] | GI50 (DU-145) [µM] | GI50 (HOP-62) [µM] | GI50 (SN12C) [µM] | GI50 (MDA-MB-435) [µM]
COc1ccc2c(c1)C(=O)c1c-2n(CCCCl)c(=O)c2cc([N+](=O)[O-])ccc12 | < 0.01 | 0.794 | 0.027 | 3.39 | 0.036 | 0.295 | < 0.01 | 3.24
Cc1ccc2c(c1)C(=O)c1c-2n(CCCBr)c(=O)c2cc([N+](=O)[O-])ccc12 | 26.3 | 18.6 | > 100 | 70.8 | 50.1 | 24.5 | 46.8 | > 100
N#Cc1ccc2c(c1)C(=O)c1c-2n(CCCCl)c(=O)c2cc([N+](=O)[O-])ccc12 | 1.12 | 1.82 | 2.63 | 8.71 | 2.75 | 2.57 | 5.89 | > 100
Cc1ccc(S(=O)(=O)Oc2ccc3c(c2)C(=O)c2c-3n(CCCBr)c(=O)c3cc([N+](=O)[O-])ccc23)cc1 | 23.4 | > 100 | 50.1 | 81.3 | 58.9 | 7.59 | > 100 | > 100
CS(=O)(=O)c1ccc2c(c1)C(=O)c1c-2n(CCCBr)c(=O)c2cc([N+](=O)[O-])ccc12 | 4.27 | 7.41 | 24 | 28.8 | 6.31 | 8.13 | 6.92 | 83.2
COC(=O)c1ccc2c(c1)C(=O)c1c-2n(CCCCl)c(=O)c2cc([N+](=O)[O-])ccc12 | 27.5 | 41.7 | 83.2 | 95.5 | 37.2 | 43.7 | > 100 | > 100
CCOc1ccc2c(c1)C(=O)c1c-2n(CCCBr)c(=O)c2cc([N+](=O)[O-])ccc12 | 5.75 | 6.03 | 5.62 | 23.4 | 4.27 | 5.75 | 11.7 | 30.9
CCc1ccc2c(c1)C(=O)c1c-2n(CCCBr)c(=O)c2cc([N+](=O)[O-])ccc12 | 32.4 | > 50.1 | 28.2 | > 50.1 | > 50.1 | 21.4 | > 50.1 | > 50.1
COC(=O)OCc1ccc2c(c1)C(=O)c1c-2n(CCCBr)c(=O)c2cc([N+](=O)[O-])ccc12 | 33.9 | 81.3 | 56.2 | > 100 | > 100 | 27.5 | > 100 | > 100
O=C1c2cc(-c3ccccc3)ccc2-c2c1c1ccc([N+](=O)[O-])cc1c(=O)n2CCCBr | 49 | > 50.1 | 16.6 | > 50.1 | > 50.1 | 18.2 | > 50.1 | > 50.1
O=C1c2cc(Cl)ccc2-c2c1c1ccc([N+](=O)[O-])cc1c(=O)n2CCCBr | 3.47 | 3.47 | 3.72 | 36.3 | 3.98 | 2.45 | 2.51 | 14.8
CSc1ccc2c(c1)C(=O)c1c-2n(CCCBr)c(=O)c2cc([N+](=O)[O-])ccc12 | 3.09 | 2.24 | 4.57 | > 100 | 3.89 | 1.05 | 0.891 | 30.9
